The values below come from paper PMC4503722, “Novel Phenotypic Outcomes Identified for a Public Collection of Approved Drugs from a Publicly Accessible Panel of Assays” (PLoS ONE, 2015).

Common to all, as to experiment: cells
What all share (assay type): cell-based

The test system of one test is DLD-1. The note with it: assay number 23, basal; for IC50: read-out: Basal_Viability ATP DLD-1 summarized IC50.
The test system of a further test is RKO. The note with it: assay number 29, basal; for IC50: read-out: Basal_Viability ATP RKO summarized IC50.
A further test deals with SNU-C1. The note with it: assay number 30, basal; for IC50: read-out: Basal_Viability ATP SNU-C1 summarized IC50.
Test [1] relates to HCT116 cells treated with a GSK3β inhibitor. The note with it: assay number 26, GSK3b inhibitor pretreated; for IC50: read-out: GSK3b inh pretreated_Viability ATP HCT116 summarized IC50.
A further test has as its system HeLa cells.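 For Hela CellCycMod PI 4N summarized IC50: value tracks stimulation of 4N DNA content.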
The next test deals with HCT116. The note with it: assay number 25, basal; for IC50: read-out: Basal_Viability ATP HCT116 summarized IC50.
For another test, the system named is Colo320. The note with it: assay number 27, basal; for IC50: read-out: Basal_Viability ATP Colo 320 summarized IC50.
The next test concerns SW480. The note with it: assay number 24, basal; for IC50: read-out: Basal_Viability ATP SW480 summarized IC50.
A further test has as its system HT-29. The note with it: assay number 28, basal; for IC50: read-out: Basal_Viability ATP HT-29 summarized IC50.
Setting [2] is: assay number 14, 2N, read-out: Hela CellCycMod PI 2N summarized IC50.
[3] abbreviates: assay number 15, S phase, read-out: Hela CellCycMod PI S Phase summarized IC50.
The mark [4] stands for this setting: assay number 16, 4N, read-out: Hela CellCycMod PI 4N summarized IC50.
[5] abbreviates: assay number 17, MI, read-out: Hela CellCycMod PI MI summarized IC50.
[6] abbreviates: assay number 18, cell number, read-out: Hela CellCycMod PI Cell Number summarized IC50.

Usually IC50 stands for the midpoint of a concentration-inhibition curve.

SMILES strings stand for the structures. Like-named read-outs stand apart in the source and are kept apart here.

Turning to `O=C(O)CCc1nc2ccccc2[nH]1` [NCGC00013414-04], the IC50 in the test with DLD-1 was 2.42 µM; in the test with RKO, over 20 µM; with SNU-C1, over 20 µM; in test [1] it was 2.2 µM; with HeLa cells (setting [2]) it was over 10 µM; with HeLa cells (setting [3]) it was over 10 µM. Moreover, the IC50 in the test with HeLa cells (setting [4]) is over 10 µM; in the test with HeLa cells (setting [5]), over 10 µM; with HeLa cells (setting [6]), over 10 µM; in the test on HCT116, over 20 µM; with Colo320, over 20 µM; in the test on SW480, over 20 µM. Moreover, in the test with HT-29, the IC50 is over 20 µM.

Take `O=C(O)CN(CCN(CC(=O)O)CC(=O)O)CCN(CC(=O)O)CC(=O)O` [NCGC00015360-08]: the IC50 was over 20 µM with DLD-1; 2.96 µM in the test with RKO; over 20 µM in the test with SNU-C1; 0.896 µM in test [1]; over 10 µM with HeLa cells (setting [2]); over 10 µM in the test with HeLa cells (setting [3]). Moreover, the IC50 in the test with HeLa cells (setting [4]) was over 10 µM; in the test on HeLa cells (setting [5]) it was over 10 µM; in the test with HeLa cells (setting [6]) it was over 10 µM; in the test with HCT116, over 6.67 µM; in the test on Colo320, over 20 µM; in the test with SW480 it was 3.14 µM. Moreover, the IC50 in the test on HT-29 was over 20 µM.

For `CCCCOC(=O)c1ccc(N)cc1` [NCGC00016353-08], the IC50 in the test on DLD-1 was 4.56 µM; with RKO, 0.137 µM; in the test on SNU-C1, over 20 µM; in [1], 5.61 µM; with HeLa cells (setting [2]), over 10 µM; in the test with HeLa cells (setting [3]), over 10 µM. For the same compound, the IC50 was over 10 µM in the test with HeLa cells (setting [4]); over 10 µM in the test with HeLa cells (setting [5]); over 10 µM with HeLa cells (setting [6]); over 20 µM with HCT116; over 20 µM in the test with Colo320; 0.586 µM in the test on SW480. The IC50 in the test with HT-29 is over 20 µM.

For `CCC(=O)c1ccc(O)cc1` [NCGC00018097-06], the IC50 in the test on DLD-1 is 6.67 µM; in the test on RKO it was 7.8 µM; with SNU-C1 it was over 20 µM; in test [1] it was 6.25 µM; in the test on HeLa cells (setting [2]), over 10 µM; with HeLa cells (setting [3]), over 10 µM. The concentration for half-maximal inhibition (IC50) in the test on HeLa cells (setting [4]) was over 10 µM; with HeLa cells (setting [5]), over 10 µM; with HeLa cells (setting [6]), over 10 µM; in the test with HCT116, over 20 µM; in the test on Colo320, over 20 µM; in the test on SW480, 4.1 µM. Also, in the test on HT-29, the IC50 is over 20 µM.

As for `CCC(COC(=O)c1cc(OC)c(OC)c(OC)c1)(c1ccccc1)N(C)C.O=C(O)/C=C\C(=O)O` (centres unmarked) [NCGC00018269-05], the “Basal_Viability ATP DLD-1 IC50/EC50” value in the test on DLD-1 is on record as over 20 µM. The “Basal_Viability ATP RKO IC50/EC50” value with RKO is reported as 0.1424 µM. In addition, the “Basal_Viability ATP SNU-C1 IC50/EC50” value in the test on SNU-C1 was 2.4514 µM. For the same compound, the “GSK3b inh pretreated_Viability ATP HCT116 IC50/EC50” value in [1] is recorded as 1.615 µM. Further, in the test with HeLa cells (assay number 14, 2N), the “Hela CellCycMod PI 2N IC50/EC50” value was over 10 µM. Moreover, the “Hela CellCycMod PI S Phase IC50/EC50” value with HeLa cells (assay number 15, S phase) is given as over 10 µM. In the test with HeLa cells (assay number 16, 4N), the “Hela CellCycMod PI 4N IC50/EC50” value is over 10 µM. For the same compound, in the test on HeLa cells (assay number 17, MI), the “Hela CellCycMod PI MI IC50/EC50” value is listed as over 10 µM. Also, in the test with HeLa cells (assay number 18, cell number), the “Hela CellCycMod PI Cell Number IC50/EC50” value is over 10 µM. In the test on HCT116, the “Basal_Viability ATP HCT116 IC50/EC50” value is over 20 µM. For the same compound, the “Basal_Viability ATP Colo 320 IC50/EC50” value with Colo320 is over 20 µM. In the test with SW480, the “Basal_Viability ATP SW480 IC50/EC50” value is on record as over 20 µM. Also, the “Basal_Viability ATP HT-29 IC50/EC50” value with HT-29 is given as over 20 µM.
